Data published in patent US8207142B2, “Inhibitor of DNA methylation” (priority 2001, dated 2012).
Several values for one entry are separate records, joined by “and”; a condition that tells them apart may be missing. Identical values can stand only once.

Key:
10T1/2 cells = experiment: Induction of a myogenic phenotype (myotube formation) in 10T1/2 cells; type: cell-based, mouse; set-up: key to Muscle Formation: + representing minimal muscle formation; scored for muscle cells 9-10 days later as + to +++; +++ representing maximal muscle formation; conditions: for Muscle Formation: 24 hours treatment, scored 9-10 days later; for muscle formation (micrographs, in words): 10T1/2 cells, approximately 9-10 days after drug treatment
Method: Cells were plated (3×10^5 cells/100-mm dish) and treated 24 hours later with the indicated concentrations of compounds. The medium was either changed 24 hours or 48 hours after drug treatment. Myotube formation was assayed in 10T1/2 cells as previously described (Constantinides et al., Nature 267:364-366, 1977). […] The ability of Zebularine to cause 10T1/2 cells to undergo the myogenic switch was therefore tested (FIG. 7).

p3 locus = experiment: Ms-SNuPE quantitation of DNA methylation in 10T1/2 cells; type: cell-based, mouse; conditions: 24 hours, control 86
Method: (§1) The average methylation at defined CpG sites was quantitated using a Ms-SNuPE assay, as described by Gonzalgo and Jones (Nucleic Acids Res. 25:2529-2531, 1997) and U.S. Pat. No. 6,251,594. Briefly, genomic DNA (˜4 μg) was digested overnight with 4 units of EcoRI (Boehringer Mannheim) (p16 promoter/exon 1 and p16 exon 2; FIG. 9A) or with 4 units of RsaI (Boehringer Mannheim) (P3; FIG. 9B) to cut outside the region of interest.
(§2) After standard treatment with sodium bisulfite, a PCR product of the region was generated as template for top-strand methylation analysis. The sequences of the primers used for bisulfite-treated DNA amplification were as follows: […]
P3: 95° C. for 2 minutes, 95° C. for 1 minute, 50° C. for 50 seconds, and 72° C. for 1 minute for 40 cycles, with a final extension at 72° C. for 10 minutes.
(§3) Duplicates of 4 μl of template were then added to 6 μl of mixture consisting of 1× PCR buffer, 1 μM final concentration primers, 1 μCi of [^32P]dCTP or dTTP, and 1 unit 1:1 Taq/TaqStart antibody (Clontech, Palo Alto, Calif.). Single nucleotide extension involved incubation at 95° C. for 1 minute, then 50° C. for 2 minutes, and finally 72° C. for 1 minute (p16 promoter/exon1 and P16 exon 2) and 95° C. for 1 minute, then 46° C. for 30 seconds, and finally 72° C. for 20 seconds (P3). The sequences for SNuPE primers were as follows: […]
(§4) After briefly spinning down the tubes, 4 μl of stop solution were added to the 10-μl reaction volume, and the samples were boiled for 5 minutes at 95° C. before loading 1.5 μl onto a 15% denaturing polyacrylamide gel (7 M urea). The gel was run at 90 W for 1.5 hours and then dried at 80° C. for 40 minutes. The gel was exposed to a phosphorimaging cassette for quantitation of the ratio of [^32P]dCTP versus [^32P]dTTP incorporation, and the quantitation of the percent methylation was averaged from three separate CpG sites. The gel was then exposed to BioMax MR film (Kodak) to record experimental results.

p16 exon 2 = experiment: Ms-SNuPE quantitation of DNA methylation in T24 cells, p16 exon 2; type: cell-based, human; conditions: for p16 Exon 2 Methylation (%): control 96
Method: as §1, §2
p16 exon 2: 94° C. for 3 minutes, 94° C. for 1 minute, 62° C. for 45 seconds, and 72° C. for 45 seconds for 40 cycles, with a final extension step at 72° C. for 10 minutes.
as §3, §4

[1] = Toxicity (Table 1 summary of characteristics)
p16 promoter = experiment: Ms-SNuPE quantitation of DNA methylation in T24 cells, p16 promoter; type: cell-based, human; conditions: control 96
Method: as §1, §2
p16 promoter/exon 1: 94° C. for 3 minutes, 94° C. for 45 seconds, 67° C. for 45 seconds, and 72° C. for 45 seconds for 40 cycles, with a final extension step at 72° C. for 10 minutes.
as §3, §4

T24 cells = experiment: Incorporation of Zebularine into DNA and RNA in T24 cells; type: in vitro ADME, human; conditions: 10 μM, 1 μCi, 24 hr
Method: FIG. 19 is a bar graph depicting the relative incorporation of Zebularine into DNA and RNA in T24 cells, showing that approximately 7 times the amount of Zebularine is incorporated into RNA as DNA.
Following a similar incubation protocol in T24 cells (Zebularine (10 μM, 1 μCi) for 24 hr, cellular DNA and RNA were isolated by the tri-reagent method according to the manufacture's instructions. Levels of Zebularine and 2′-Deoxyzebularine were determined by measuring total radioactivity in purified RNA and DNA, respectively. The identity of Zebularine and 2′-Deoxyzebularine was accomplished by a reverse phase HPLC analysis of digested RNA and DNA and comparison against authentic standards. In FIG. 19 a bar graph depicts the relative incorporation of Zebularine into DNA and RNA in T24 cells, showing that approximately 7 times the amount of Zebularine is incorporated into RNA as DNA.

DNMT3b3 = biological target: T1, DNMT3b3 (Homo sapiens, UniProt Q9UBC3); experiment: Western blot of DNMT3b3 level in treated T24 cells; type: cell-based; conditions: 500 μM for 48 h
T1 construct: protein extracts were isolated from both treated and untreated T24; endogenous in cells; host or cells: T24 human bladder carcinoma cells (ATCC)
Method: The mRNA for DNMT3b3 is the only 3b transcript expressed in T24 cells, and DNMT3a levels could not be assessed because no suitable antibodies against DNMT3a are available. Thus, with reference to FIG. 12, protein extracts were isolated from both treated and untreated T24 (population 3 million cells, treated with 500 μM Zebularine for 48 h), and […] with specific antibodies for DNMT1 and DNMT3b3 as shown in FIG. 12. β-actin was included as a loading control, and the molecular weights of each protein are indicated.

## Nc1ncn([C@@H]2O[C@H](CO)[C@@H](O)[C@H]2O)c(=O)n1 [5-Aza-CR, 5-azacytidine, reference compound]
10T1/2 cells; 1 μM
  Muscle Formation: ++
10T1/2 cells; 3 μM
  Muscle Formation: +++
10T1/2 cells
  muscle formation (micrographs, in words): formed multinucleated myotubes
p3 locus; 1 μM
  % Methylation: 65 +/− 2%
p3 locus; 3 μM
  % Methylation: 59% and 59 +/− 6%
p16 exon 2; 3 μM, 24 hrs
  Relative p16 Exon 2 De-methylation (%): 8 +/− 2%
  p16 Exon 2 Methylation (%): 88 +/− 2%
p16 exon 2; 10 μM, 24 hrs
  Relative p16 Exon 2 De-methylation (%): 15 +/− 1%
  p16 Exon 2 Methylation (%): 82 +/− 1%
p16 exon 2; 30 μM, 24 hrs
  Relative p16 Exon 2 De-methylation (%): 25%
  p16 Exon 2 Methylation (%): 72 +/− 2%
p16 exon 2; 100 μM, 24 hrs
  Relative p16 Exon 2 De-methylation (%): 29%
  p16 Exon 2 Methylation (%): 68 +/− 3%
[1]
  Toxicity: High
p16 promoter; 3 μM, 24 hrs
  p16 Promoter Methylation (%): 91% and 91 +/− 1%
p16 promoter; 10 μM, 24 hrs
  p16 Promoter Methylation (%): 83 +/− 2%
p16 promoter; 30 μM, 24 hrs
  p16 Promoter Methylation (%): 73 +/− 2%
p16 promoter; 100 μM, 24 hrs
  p16 Promoter Methylation (%): 68% and 68 +/− 2%

## O=c1ncccn1[C@@H]1O[C@H](CO)[C@@H](O)[C@H]1O [Zebularine, 1-β-ribofuranosyl-1,2-dihydropyrimidin-2-one]
T24 cells
  amount incorporated into RNA relative to DNA: approximately 7 times
10T1/2 cells; 10 μM
  Muscle Formation: +
10T1/2 cells; 30 μM
  Muscle Formation: ++
10T1/2 cells
  muscle formation (micrographs, in words): induced muscle formation in 10T1/2 cells
p3 locus; 10 μM
  % Methylation: 75 +/− 2%
p3 locus; 30 μM
  % Methylation: 58% and 58 +/− 1%
DNMT3b3
  level of DNMT3b3: significant reduction
p16 exon 2; 300 μM, 24 hrs
  Relative p16 Exon 2 De-methylation (%): 7 +/− 1%
  p16 Exon 2 Methylation (%): 89 +/− 1%
p16 exon 2; 300 μM, 48 hrs
  Relative p16 Exon 2 De-methylation (%): 16 +/− 2%
  p16 Exon 2 Methylation (%): 81 +/− 2%
p16 exon 2; 500 μM, 24 hrs
  Relative p16 Exon 2 De-methylation (%): 9 +/− 1%
  p16 Exon 2 Methylation (%): 87 +/− 1%
p16 exon 2; 500 μM, 48 hrs
  Relative p16 Exon 2 De-methylation (%): 18 +/− 2%
  p16 Exon 2 Methylation (%): 79 +/− 2%
p16 exon 2; 1000 μM, 24 hrs
  Relative p16 Exon 2 De-methylation (%): 20 +/− 2%
  p16 Exon 2 Methylation (%): 77 +/− 2%
p16 exon 2; 1000 μM, 48 hrs
  Relative p16 Exon 2 De-methylation (%): 24 +/− 1%
  p16 Exon 2 Methylation (%): 73 +/− 1%
p16 promoter; 300 μM, 24 hrs
  p16 Promoter Methylation (%): 91% and 91 +/− 1%
p16 promoter; 300 μM, 48 hrs
  p16 Promoter Methylation (%): 80% and 80 +/− 1%
p16 promoter; 500 μM, 24 hrs
  p16 Promoter Methylation (%): 85% and 85 +/− 1%
p16 promoter; 500 μM, 48 hrs
  p16 Promoter Methylation (%): 77% and 77 +/− 2%
p16 promoter; 1000 μM, 24 hrs
  p16 Promoter Methylation (%): 72% and 72 +/− 2%
p16 promoter; 1000 μM, 48 hrs
  p16 Promoter Methylation (%): 68% and 68 +/− 2%
